In patent US20240150368A1, “ULK INHIBITORS AND METHODS OF USE THEREOF” (Deciphera Pharmaceuticals, LLC, priority 2022, published 2024):

How the values were obtained:
ULK2 kinase = target: T1, ULK2 kinase (Homo sapiens, UniProt Q8IYT8); experiment: Biochemical assay for ULK2 (coupled pyruvate kinase/lactate dehydrogenase assay); conditions: 1 mM ATP, 1 nM ULK2; read-out: ULK2 (inhibition of biochemical activity), IC50
T1 construct: (residues 1-306 with N-terminal GST and His tag; ID NO: 2); purchased Signal Chem U02-11G
T1 sequence (Q8IYT8 with tags, fused parts or gaps): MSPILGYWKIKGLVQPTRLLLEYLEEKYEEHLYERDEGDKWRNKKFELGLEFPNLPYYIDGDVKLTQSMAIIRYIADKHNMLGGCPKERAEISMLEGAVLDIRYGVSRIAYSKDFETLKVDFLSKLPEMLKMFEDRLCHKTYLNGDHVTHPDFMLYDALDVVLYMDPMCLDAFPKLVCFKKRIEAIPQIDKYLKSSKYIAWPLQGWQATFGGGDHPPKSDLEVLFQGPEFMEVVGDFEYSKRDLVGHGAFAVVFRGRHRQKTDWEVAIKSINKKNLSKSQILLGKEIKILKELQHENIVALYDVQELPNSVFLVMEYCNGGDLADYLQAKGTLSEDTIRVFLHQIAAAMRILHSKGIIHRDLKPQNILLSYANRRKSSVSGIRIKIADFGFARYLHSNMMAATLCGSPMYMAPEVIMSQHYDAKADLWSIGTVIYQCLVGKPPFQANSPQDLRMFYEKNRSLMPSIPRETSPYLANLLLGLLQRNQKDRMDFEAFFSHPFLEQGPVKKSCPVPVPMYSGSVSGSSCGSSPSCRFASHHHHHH
Outline: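 Continuous PK/LDH-coupled NADH oxidation assay (A340) with 1 nM ULK2, 200 μM ULKtide and 1 mM ATP in Tris pH 7.5, 15 mM MgCl2, 1% DMSO, read 6 h at 30° C. Rates from the 2-3 h window converted to percent inhibition against no-compound and known-inhibitor controls; IC50 by four-parameter sigmoidal fit.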

ULK1 kinase = target: T2, ULK1 kinase (Homo sapiens, UniProt O75385, E37A/K38A); experiment: Biochemical assay for ULK1 (coupled pyruvate kinase/lactate dehydrogenase assay); conditions: 1 mM ATP, 0.1 nM ULK1; read-out: ULK1 (inhibition of biochemical activity), IC50
T2 construct: (residues 1-283; ID NO: 1); purchased Beryllium
T2 sequence (O75385 1-283 E37A/K38A): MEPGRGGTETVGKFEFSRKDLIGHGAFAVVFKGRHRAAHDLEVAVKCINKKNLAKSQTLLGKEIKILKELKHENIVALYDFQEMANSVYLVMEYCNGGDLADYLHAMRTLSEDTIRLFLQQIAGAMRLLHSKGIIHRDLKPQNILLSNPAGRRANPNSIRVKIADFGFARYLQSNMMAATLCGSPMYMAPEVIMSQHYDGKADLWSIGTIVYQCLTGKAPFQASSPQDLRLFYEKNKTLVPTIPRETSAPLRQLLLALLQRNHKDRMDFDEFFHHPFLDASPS
Outline: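 IC50 values were fitted to percent inhibition, normalised with no-compound and known-inhibitor controls, using rates from 2–3 h of a 6 h read at 30 °C. ADP was coupled through pyruvate kinase/lactate dehydrogenase to NADH loss at 340 nm.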

| SMILES | IC50 (ULK2 kinase) [µM] | IC50 (ULK1 kinase) [µM] |
| --- | --- | --- |
| CC/C(Nc1cnn(C2CCN(C(C)C)CC2)c1)=C1/C(=O)Nc2ccc(C(=O)NCC3CCC(C4CC4)O3)cc21 (stereo not drawn) [Example 3, (Z)—N-((5-cyclopropyltetrahydrofuran-2-yl)methyl)-3-(1-((1-(1-isopropylpiperidin-4-yl)-1H-pyrazol-4-yl)amino)propylidene)-2-oxoindoline-5-carboxamide] | 0.1 to 0.5 | 0.01 to 0.1 |
| CC/C(Nc1cnn(C(C)C)c1)=C1/C(=O)Nc2ccc(C(=O)NCC3(C)COC3)cc21 [Example 5, (Z)-3-(1-((1-isopropyl-1H-pyrazol-4-yl)amino)propylidene)-N-((3-methyloxetan-3-yl)methyl)-2-oxoindoline-5-carboxamide] | 0.1 to 0.5 | 0.01 to 0.1 |
| CC/C(Nc1cnn(C2CCN(C(C)C)CC2)c1)=C1/C(=O)Nc2ccc(C(=O)NCC3CCO3)cc21 (stereo not drawn) [Example 21] | 0.01 to 0.1 | 0.01 to 0.1 |
| CC/C(Nc1cnn(C2CCN(C(C)C)CC2)c1)=C1/C(=O)Nc2ccc(C(=O)NCC(C)(C)OC)cc21 [Example 27] | 0.1 to 0.5 | 0.01 to 0.1 |
| CC/C(Nc1cnn(C2CCN(C(C)C)CC2)c1)=C1/C(=O)Nc2ccc(C(=O)NCC(C)(C)O)cc21 [Example 28] | 0.01 to 0.1 | 0.01 to 0.1 |
| CC/C(Nc1cnn(C2CCN(C(C)C)CC2)c1)=C1/C(=O)Nc2ccc(C(=O)NC3CC(F)(F)C3)cc21 [Example 29] | 0.01 to 0.1 | ≤ 0.01 |
| CC/C(Nc1cnn(C2CCN(C(C)C)CC2)c1)=C1/C(=O)Nc2ccc(C(=O)NCC3CC(F)(F)C3)cc21 [Example 30] | ≤ 0.01 | ≤ 0.01 |
| CC/C(Nc1cnn(C2CCN(C(C)C)CC2)c1)=C1/C(=O)Nc2ccc(C(=O)NCCC(F)(F)F)cc21 [Example 31] | ≤ 0.01 | ≤ 0.01 |
| CC/C(Nc1cnn(C2CCN(C3CCOCC3)CC2)c1)=C1/C(=O)Nc2ccc(C(=O)NCC(C)C)cc21 [Example 37] | 0.01 to 0.1 | ≤ 0.01 |
| CC/C(Nc1cnn(C2CCN(C(C)C)CC2)c1)=C1/C(=O)Nc2ccc(C(=O)NCC3CC3)cc21 [Example 42] | 0.01 to 0.1 | ≤ 0.01 |
| CC/C(Nc1cnn(C2CCN(C(C)C)CC2)c1)=C1/C(=O)Nc2ccc(C(=O)NCC3CCCC3)cc21 [Example 44] | ≤ 0.01 | ≤ 0.01 |
| CC/C(Nc1cnn(C2CCN(C)CC2)c1)=C1/C(=O)Nc2ccc(C(=O)NC[C@H]3CCCO3)cc21 [Example 51] | 0.01 to 0.1 | ≤ 0.01 |
| CC/C(Nc1cnn(C)c1)=C1/C(=O)Nc2ccc(C(=O)NC[C@H]3CCCO3)cc21 [Example 55] | 0.1 to 0.5 | 0.01 to 0.1 |
| CC/C(Nc1ccc(N2CC3(CN(C)C3)C2)cc1)=C1/C(=O)Nc2ccc(C(=O)NCC(F)(F)F)cc21 [Example 62] | 0.01 to 0.1 | ≤ 0.01 |
| CC/C(Nc1cnc(N2CCN(C(C)C)CC2)cn1)=C1/C(=O)Nc2ccc(C(=O)NCC(F)(F)F)cc21 [Example 94] | 0.01 to 0.1 | 0.01 to 0.1 |
| CC/C(Nc1cnn(C(C)C)c1)=C1/C(=O)Nc2ccc(C(=O)NC[C@H]3CCCO3)cc21 [Example 95] | 0.01 to 0.1 | ≤ 0.01 |
| CC/C(Nc1ccc(N2CCN(C(C)C)CC2)cc1)=C1/C(=O)Nc2cc(F)c(C(=O)NCC(F)(F)F)cc21 [Example 100] | 0.1 to 0.5 | 0.1 to 0.5 |
| C/C(Nc1cnn(C(C)C)c1)=C1/C(=O)Nc2ccc(C(=O)NCC(F)(F)F)cc21 [Example 101] | 0.01 to 0.1 | ≤ 0.01 |
| CC/C(Nc1cnn(CCOC)c1)=C1/C(=O)Nc2ccc(C(=O)NCC(F)(F)F)cc21 [Example 102] | 0.01 to 0.1 | 0.01 to 0.1 |
| CC/C(Nc1cnn(CCN(C)C)c1)=C1/C(=O)Nc2ccc(C(=O)NCC(F)(F)F)cc21 [Example 103] | 0.01 to 0.1 | ≤ 0.01 |
| CC/C(Nc1cnn([C@H]2CCOC2)c1)=C1/C(=O)Nc2ccc(C(=O)NCC(F)(F)F)cc21 [Example 104] | 0.01 to 0.1 | ≤ 0.01 |
| CC/C(Nc1cnn([C@@H]2CCOC2)c1)=C1/C(=O)Nc2ccc(C(=O)NCC(F)(F)F)cc21 [Example 105] | 0.01 to 0.1 | ≤ 0.01 |
| CC/C(Nc1cnn(C2CCOCC2)c1)=C1/C(=O)Nc2ccc(C(=O)NCC(F)(F)F)cc21 [Example 106] | 0.01 to 0.1 | ≤ 0.01 |
| CC/C(Nc1cn[nH]c1)=C1/C(=O)Nc2ccc(C(=O)NCC(F)(F)F)cc21 [Example 108] | 0.01 to 0.1 | 0.01 to 0.1 |
| CC/C(Nc1cnn(C(C)C)c1)=C1/C(=O)Nc2ccc(C(=O)NCC(F)F)cc21 [Example 112] | 0.01 to 0.1 | 0.01 to 0.1 |
| CC/C(Nc1cnn(C2CC2)c1)=C1/C(=O)Nc2ccc(C(=O)NCC(F)(F)F)cc21 [Example 116] | 0.01 to 0.1 | 0.01 to 0.1 |
| CC/C(Nc1cnn(C2COC2)c1)=C1/C(=O)Nc2ccc(C(=O)NCC(F)(F)F)cc21 [Example 118] | 0.01 to 0.1 | ≤ 0.01 |
